Calls of active or inactive are those of the source. The calls are words filed in the database; no cut-off is given here.
What was measured:
SF-295 = test: Growth inhibition of human SF295 cells at 10 uM by sulforhodamine B assay; type: functional, cell-based
U-251 = test: Growth inhibition of human U251 cells at 10 uM by sulforhodamine B assay; type: functional, cell-based
HCC 2998 = test: Growth inhibition of human HCC2998 cells at 10 uM by sulforhodamine B assay; type: functional, cell-based
A549 [1] = test: Induction of morphological changes in human A549 cells at 10 to 50 uM; type: functional, cell-based
T47D = test: Growth inhibition of human T47D cells at 10 uM by sulforhodamine B assay; type: functional, cell-based
LOX IMVI = test: Growth inhibition of human LOXIMVI cells at 10 uM by sulforhodamine B assay; type: functional, cell-based
A549 [2] = test: Cell cycle arrest in human A549 cells assessed as accumulation at S phase at 20 uM after 48 hrs using propidium iodide staining by flow cytometer analysis (reference value: 6.67%); type: functional
ACHN = test: Growth inhibition of human ACHN cells at 10 uM by sulforhodamine B assay; type: functional, cell-based
HT-29 = test: Growth inhibition of human HT-29 cells at 10 uM by sulforhodamine B assay; type: functional, cell-based
MDA-MB-468 = test: Growth inhibition of human MDA-MB-468 cells at 10 uM by sulforhodamine B assay; type: functional, cell-based
A549 [3] = test: Cell cycle arrest in human A549 cells assessed as accumulation at G0/G1 phase at 5 uM after 48 hrs using propidium iodide staining by flow cytometer analysis (reference value: 79.34%); type: functional
MOLT-4 = test: Growth inhibition of human MOLT4 cells at 10 uM by sulforhodamine B assay; type: functional, cell-based
A549 [4] = test: Induction of apoptosis in human A549 cells assessed as activation of caspase; type: functional, cell-based
OVCAR-3 = test: Growth inhibition of human OVCAR3 cells at 10 uM by sulforhodamine B assay; type: functional, cell-based
A549 [5] = test: Inhibition of colony formation in human A549 cells after 14 days using crystal violet staining by soft agar assay; type: functional, cell-based
MCF7 = test: Growth inhibition of human MCF7 cells at 10 uM by sulforhodamine B assay; type: functional, cell-based
NCI-H522 = test: Growth inhibition of human NCI-H522 cells at 10 uM by sulforhodamine B assay; type: functional, cell-based
A549 [6] = test: Growth inhibition of human A549/ATCC cells at 10 uM by sulforhodamine B assay; type: functional, cell-based
SK-MEL-28 = test: Growth inhibition of human SK-MEL-28 cells at 10 uM by sulforhodamine B assay; type: functional, cell-based
PC-3 = test: Growth inhibition of human PC3 cells at 10 uM by sulforhodamine B assay; type: functional, cell-based
SK-MEL-2 = test: Growth inhibition of human SK-MEL-2 cells at 10 uM by sulforhodamine B assay; type: functional, cell-based
A549 [7] = test: Cell cycle arrest in human A549 cells assessed as accumulation at sub-G1 phase at 20 uM after 48 hrs using propidium iodide staining by flow cytometer analysis (reference value: 0.96%); type: functional
DU-145 = test: Growth inhibition of human DU145 cells at 10 uM by sulforhodamine B assay; type: functional, cell-based
HOP-92 = test: Growth inhibition of human HOP92 cells at 10 uM by sulforhodamine B assay; type: functional, cell-based
MDA-MB-435 = test: Growth inhibition of human MDA-MB-435 cells at 10 uM by sulforhodamine B assay; type: functional, cell-based
COLO 205 = test: Growth inhibition of human COLO205 cells at 10 uM by sulforhodamine B assay; type: functional, cell-based
A549 [8] = test: Cell cycle arrest in human A549 cells assessed as accumulation at G0/G1 phase at 20 uM after 48 hrs using propidium iodide staining by flow cytometer analysis (reference value: 79.34%); type: functional
A549 [9] = test: Cell cycle arrest in human A549 cells assessed as accumulation at G2/M phase at 20 uM after 48 hrs using propidium iodide staining by flow cytometer analysis (reference value: 13.02%); type: functional
NCI/ADR-RES = test: Growth inhibition of human NCI/ADR-RES cells at 10 uM by sulforhodamine B assay; type: functional, cell-based

COc1ccc(-c2nc(-c3ccccn3)c(-c3ccccn3)n2CC(C)C)cc1OC1CCCC1 was tested, and the “growth inhibition (GI)” value (SF-295) was “Active”, the “growth inhibition (GI)” value (U-251) was “Active” and the “growth inhibition (GI)” value (HCC 2998) was “Active”. For the same compound, the Activity (A549 [1]) was “Active”, the “growth inhibition (GI)” value (T47D) was “Active” and the “growth inhibition (GI)” value (LOX IMVI) was “Active”. The Activity (A549 [2]) was 6.63%, the “growth inhibition (GI)” value (ACHN) was “Active” and the “growth inhibition (GI)” value (HT-29) was “Active”. For the same compound, the “growth inhibition (GI)” value (MDA-MB-468) was “Active”, the Activity (A549 [3]) was 89.38% and the “growth inhibition (GI)” value (MOLT-4) was “Active”. The Activity (A549 [4]) was “inactive”, the “growth inhibition (GI)” value (OVCAR-3) was “Active” and the inhibition (A549 [5]) was “Dose-dependent effect”. For the same compound, the “growth inhibition (GI)” value (MCF7) was “Active”, the “growth inhibition (GI)” value (NCI-H522) was “Active” and the “growth inhibition (GI)” value (A549 [6]) was “Active”. For the same compound, the “growth inhibition (GI)” value (SK-MEL-28) was “Active”, the “growth inhibition (GI)” value (PC-3) was “Active” and the “growth inhibition (GI)” value (SK-MEL-2) was “Active”. For the same compound, the Activity (A549 [7]) was 19.34%, the “growth inhibition (GI)” value (DU-145) was “Active” and the “growth inhibition (GI)” value (HOP-92) was “Active”. For the same compound, the “growth inhibition (GI)” value (MDA-MB-435) was “Active”, the “growth inhibition (GI)” value (COLO 205) was “Active” and the Activity (A549 [8]) was 69.52%. The Activity (A549 [9]) was 4.51% and the “growth inhibition (GI)” value (NCI/ADR-RES) was “Active”.

From ChEMBL document CHEMBL3621049, “Imidazole derivatives show anticancer potential by inducing apoptosis and cellular senescence” (2014)
